According to the supplement of paper PMC10307832:

Legend:
Assay in all cases: relative viability (nuclei count vs DMSO), 5 days (fraction); higher = more cells survive
EKVX = system: EKVX
In short: (§1)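 Cells from lung cancer lines were seeded into 1536-well plates and, one day later, dosed by pin tool. Treatments were either a single drug or a fixed dose of an anchor drug with five library-drug doses (not always all listed) in √10 steps. After 5 days, nuclei were stained in a one-step fixation (final 0.05% Triton X-100, 1% formaldehyde, 1 ug/ml Hoechst) and counted on 4× images, and relative viability is the treated-to-vehicle nuclei ratio, as the median of duplicate plates.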

LU99A = system: LU99A
In short: as §1

EMC-BAC-2 = system: EMC-BAC-2
In short: as §1

NCI-H520 = system: NCI-H520
In short: as §1

BEN = system: BEN
In short: as §1

COR-L 105 = system: COR-L 105
In short: as §1

NCI-H522 = system: NCI-H522
In short: as §1

NCI-H1651 = system: NCI-H1651
In short: as §1

NCI-H460 = system: NCI-H460
In short: as §1

NCI-H2023 = system: NCI-H2023
In short: as §1

CAL-12T = system: CAL-12T
In short: as §1

201T = system: 201T
In short: as §1

HCC-15 = system: HCC-15
In short: as §1

NCI-H322M = system: NCI-H322M
In short: as §1

ABC-1 = system: ABC-1
In short: as §1

NCI-H358 = system: NCI-H358
In short: as §1

HCC-44 = system: HCC-44
In short: as §1

NCI-H838 = system: NCI-H838
In short: as §1

NCI-H727 = system: NCI-H727
In short: as §1

SW 900 = system: SW 900
In short: as §1

LK-2 = system: LK-2
In short: as §1

PC-3 [JPC-3] = system: PC-3 [JPC-3]
In short: as §1

## CCNC(=O)c1noc(-c2cc(C(C)C)c(O)cc2O)c1-c1ccc(CN2CCOCC2)cc1 [Luminespib] + O=C(c1cc(Cc2n[nH]c(=O)c3ccccc23)ccc1F)N1CCN(C(=O)C2CC2)CC1 [Olaparib] (partner 8 µM)
EKVX; first compound 0.002 µM
  relative viability: 0.881
EKVX; first compound 0.006325 µM
  relative viability: 0.881
EKVX; first compound 0.02 µM
  relative viability: 0.651
EKVX; first compound 0.06325 µM
  relative viability: 0.541
EKVX; first compound 0.2 µM
  relative viability: 0.155
LU99A; first compound 0.002 µM
  relative viability: 0.294
LU99A; first compound 0.006325 µM
  relative viability: 0.236
LU99A; first compound 0.02 µM
  relative viability: 0.226
LU99A; first compound 0.06325 µM
  relative viability: 0.174
LU99A; first compound 0.2 µM
  relative viability: 0.138
EMC-BAC-2; first compound 0.002 µM
  relative viability: 0.489
EMC-BAC-2; first compound 0.006325 µM
  relative viability: 0.482
EMC-BAC-2; first compound 0.02 µM
  relative viability: 0.471
EMC-BAC-2; first compound 0.06325 µM
  relative viability: 0.234
EMC-BAC-2; first compound 0.2 µM
  relative viability: 0.242
NCI-H520; first compound 0.002 µM
  relative viability: 0.361
NCI-H520; first compound 0.006325 µM
  relative viability: 0.302
NCI-H520; first compound 0.02 µM
  relative viability: 0.227
NCI-H520; first compound 0.06325 µM
  relative viability: 0.139
NCI-H520; first compound 0.2 µM
  relative viability: 0.112
BEN; first compound 0.002 µM
  relative viability: 1.24
BEN; first compound 0.006325 µM
  relative viability: 0.905
BEN; first compound 0.02 µM
  relative viability: 0.823
BEN; first compound 0.06325 µM
  relative viability: 0.273
BEN; first compound 0.2 µM
  relative viability: 0.279
COR-L 105; first compound 0.002 µM
  relative viability: 0.737
COR-L 105; first compound 0.006325 µM
  relative viability: 0.647
COR-L 105; first compound 0.02 µM
  relative viability: 0.646
COR-L 105; first compound 0.06325 µM
  relative viability: 0.256
COR-L 105; first compound 0.2 µM
  relative viability: 0.295
NCI-H522; first compound 0.002 µM
  relative viability: 0.757
NCI-H522; first compound 0.006325 µM
  relative viability: 0.61
NCI-H522; first compound 0.02 µM
  relative viability: 0.624
NCI-H522; first compound 0.06325 µM
  relative viability: 0.437
NCI-H522; first compound 0.2 µM
  relative viability: 0.4
NCI-H1651; first compound 0.002 µM
  relative viability: 0.195
NCI-H1651; first compound 0.006325 µM
  relative viability: 0.177
NCI-H1651; first compound 0.02 µM
  relative viability: 0.251
NCI-H1651; first compound 0.06325 µM
  relative viability: 0.181
NCI-H1651; first compound 0.2 µM
  relative viability: 0.165
NCI-H460; first compound 0.002 µM
  relative viability: 0.514
NCI-H460; first compound 0.006325 µM
  relative viability: 0.37
NCI-H460; first compound 0.02 µM
  relative viability: 0.454
NCI-H460; first compound 0.06325 µM
  relative viability: 0.0514
NCI-H460; first compound 0.2 µM
  relative viability: 0.0343
NCI-H2023; first compound 0.002 µM
  relative viability: 0.459
NCI-H2023; first compound 0.006325 µM
  relative viability: 0.418
NCI-H2023; first compound 0.02 µM
  relative viability: 0.219
NCI-H2023; first compound 0.06325 µM
  relative viability: 0.056
NCI-H2023; first compound 0.2 µM
  relative viability: 0.0536
CAL-12T; first compound 0.002 µM
  relative viability: 0.671
CAL-12T; first compound 0.006325 µM
  relative viability: 0.679
CAL-12T; first compound 0.02 µM
  relative viability: 0.959
CAL-12T; first compound 0.06325 µM
  relative viability: 0.136
CAL-12T; first compound 0.2 µM
  relative viability: 0.182
201T; first compound 0.002 µM
  relative viability: 0.883
201T; first compound 0.006325 µM
  relative viability: 0.829
201T; first compound 0.02 µM
  relative viability: 0.87
201T; first compound 0.06325 µM
  relative viability: 0.803
201T; first compound 0.2 µM
  relative viability: 0.784
HCC-15; first compound 0.002 µM
  relative viability: 0.778
HCC-15; first compound 0.006325 µM
  relative viability: 0.682
HCC-15; first compound 0.02 µM
  relative viability: 0.734
HCC-15; first compound 0.06325 µM
  relative viability: 0.345
HCC-15; first compound 0.2 µM
  relative viability: 0.154
NCI-H322M; first compound 0.002 µM
  relative viability: 0.799
NCI-H322M; first compound 0.006325 µM
  relative viability: 0.738
NCI-H322M; first compound 0.02 µM
  relative viability: 0.729
NCI-H322M; first compound 0.06325 µM
  relative viability: 0.344
NCI-H322M; first compound 0.2 µM
  relative viability: 0.439
ABC-1; first compound 0.002 µM
  relative viability: 0.928
ABC-1; first compound 0.006325 µM
  relative viability: 1.02
ABC-1; first compound 0.02 µM
  relative viability: 0.526
ABC-1; first compound 0.06325 µM
  relative viability: 0.337
ABC-1; first compound 0.2 µM
  relative viability: 0.244
NCI-H358; first compound 0.002 µM
  relative viability: 0.637
NCI-H358; first compound 0.006325 µM
  relative viability: 0.655
NCI-H358; first compound 0.02 µM
  relative viability: 0.577
NCI-H358; first compound 0.06325 µM
  relative viability: 0.0817
NCI-H358; first compound 0.2 µM
  relative viability: 0.0712
HCC-44; first compound 0.002 µM
  relative viability: 0.981
HCC-44; first compound 0.006325 µM
  relative viability: 0.952
HCC-44; first compound 0.02 µM
  relative viability: 1.07
HCC-44; first compound 0.06325 µM
  relative viability: 0.944
HCC-44; first compound 0.2 µM
  relative viability: 0.52
NCI-H838; first compound 0.002 µM
  relative viability: 0.772
NCI-H838; first compound 0.006325 µM
  relative viability: 0.782
NCI-H838; first compound 0.02 µM
  relative viability: 0.723
NCI-H838; first compound 0.06325 µM
  relative viability: 0.122
NCI-H838; first compound 0.2 µM
  relative viability: 0.129
NCI-H727; first compound 0.002 µM
  relative viability: 0.674
NCI-H727; first compound 0.006325 µM
  relative viability: 0.767
NCI-H727; first compound 0.02 µM
  relative viability: 0.695
NCI-H727; first compound 0.06325 µM
  relative viability: 0.403
NCI-H727; first compound 0.2 µM
  relative viability: 0.271
SW 900; first compound 0.002 µM
  relative viability: 0.688
SW 900; first compound 0.006325 µM
  relative viability: 0.81
SW 900; first compound 0.02 µM
  relative viability: 0.818
SW 900; first compound 0.06325 µM
  relative viability: 0.163
SW 900; first compound 0.2 µM
  relative viability: 0.152
LK-2; first compound 0.002 µM
  relative viability: 0.884
LK-2; first compound 0.006325 µM
  relative viability: 0.89
LK-2; first compound 0.02 µM
  relative viability: 0.519
LK-2; first compound 0.06325 µM
  relative viability: 0.11
LK-2; first compound 0.2 µM
  relative viability: 0.114
PC-3 [JPC-3]; first compound 0.002 µM
  relative viability: 1.09
PC-3 [JPC-3]; first compound 0.006325 µM
  relative viability: 1.04
PC-3 [JPC-3]; first compound 0.02 µM
  relative viability: 0.863
PC-3 [JPC-3]; first compound 0.06325 µM
  relative viability: 0.392
PC-3 [JPC-3]; first compound 0.2 µM
  relative viability: 0.398
